From PMC8951016, “Computational Design and Biological Evaluation of Analogs of Lupin Peptide P5 Endowed with Dual PCSK9/HMG-CoAR Inhibiting Activity” (Pharmaceutics, 2022)

Legend:
[1] = tested on: LDLR on HepG2 cell surface; experiment: In-cell western (ICW), LDLR on HepG2 surface in the presence of PCSK9; assay type: cell-based, human; settings: 50 µM + PCSK9 4 µg/mL; Figure 3B
Experimental: For the experiments, a total of 3 × 10^4 HepG2 cells/well were seeded in 96-well plates and treated with 4.0 μg/mL PCSK9-WT and 4.0 μg/mL PCSK9 + peptides P5 and/or P5 analogs (50 µM) and vehicle (H2O) for 2 h at 37 °C under 5% CO2 atmosphere. Thus, cells underwent to ICW assay following conditions already optimized. See Supplementary Materials for detailed information. […]
cLex Co., Nagano, Japan). The peptides (P5, P5-Best, P-H6A, and P5-S7A) were synthe-sized by the company GeneScript (Piscataway, NJ, USA) at >95% purity. The antibody against HMG-CoAR was bought from Abcam (Cambridge, UK). […]
HMG-CoAR Aactivity Assay. […] Subsequently, the samples were mixed and the absorbance at 340 nm read by the microplate reader Synergy H1 (Winooski, VT, USA) at time 0 and 10 min. The HMG-CoAR-dependent oxidation of NADPH and the inhibition properties of peptides were measured by absorbance reduction, which is directly proportional to enzyme activ- […]
In Vitro PCSK9-LDLR Binding Assay. […] The reaction was stopped with 2.0 M sulfuric acid and the absorbance at 450nm was measured using the Synergy H1 fluorescent plate reader […]

[2] = target: T1, HMG-CoAR (catalytic domain) (Homo sapiens, UniProt P04035); settings: parent peptide; read-out: IC50, HMG-CoAR activity (P5); cited from earlier work
T1 construct: finally the HMG-CoAR (cata- lytic domain) (2 µL); purchased Sigma-Aldrich
T1 sequence (P04035 426-888 limits assumed): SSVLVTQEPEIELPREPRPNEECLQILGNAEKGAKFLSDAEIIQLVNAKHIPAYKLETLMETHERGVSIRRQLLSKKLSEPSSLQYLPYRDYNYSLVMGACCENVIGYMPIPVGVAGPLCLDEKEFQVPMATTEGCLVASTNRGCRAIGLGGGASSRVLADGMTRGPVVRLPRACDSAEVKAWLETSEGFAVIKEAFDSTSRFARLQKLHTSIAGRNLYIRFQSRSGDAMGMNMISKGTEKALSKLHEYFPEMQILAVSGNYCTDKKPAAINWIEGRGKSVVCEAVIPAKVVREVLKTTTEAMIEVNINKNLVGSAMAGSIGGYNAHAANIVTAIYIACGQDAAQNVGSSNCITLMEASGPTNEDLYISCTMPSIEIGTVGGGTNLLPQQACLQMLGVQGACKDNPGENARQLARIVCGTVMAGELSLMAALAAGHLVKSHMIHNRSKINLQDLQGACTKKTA

What does the source list for “LILPKHSDAD [Peptide P5, natural peptide derived from a peptic lupin protein hydrolysate]”?
LDLR level on cell surface in presence of PCSK9 [1]: restored; IC50 [2]: 147 µM
